The results in this text go back to patent US12319684B2 (Sanford Burnham Prebys Medical Discovery Institute, priority 2014, dated 2025).

In this test the target is T1, human apelin receptor (APJ, AGTRL-1, APLNR) (Homo sapiens, UniProt P35414).
T1 construct: host or cells: Chinese hamster ovary cells
T1 sequence (P35414 1-380): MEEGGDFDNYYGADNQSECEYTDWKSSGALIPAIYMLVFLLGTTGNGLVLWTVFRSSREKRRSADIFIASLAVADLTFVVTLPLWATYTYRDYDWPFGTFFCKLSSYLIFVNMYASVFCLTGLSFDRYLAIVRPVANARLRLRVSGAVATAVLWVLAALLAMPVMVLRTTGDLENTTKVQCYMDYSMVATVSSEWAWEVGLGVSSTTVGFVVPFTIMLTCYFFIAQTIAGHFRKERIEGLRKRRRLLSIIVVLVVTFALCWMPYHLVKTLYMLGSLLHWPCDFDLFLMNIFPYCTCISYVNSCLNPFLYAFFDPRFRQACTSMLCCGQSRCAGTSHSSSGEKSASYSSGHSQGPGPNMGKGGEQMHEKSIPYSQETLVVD
The experiment in a line: APJ cAMP cell-based assay (forskolin-stimulated CHO cells, enzyme fragment complementation). Conditions: for Emax: CHO, 0.5 h, read-out: APJ cAMP % resp (efficacy). On the procedure:
The assays disclosed herein were performed using cell lines from DiscoveRx, Inc.
Biological activity was determined in a cell-based assay. This assay detects activation of the receptor by reporting on intracellular cyclic adenosine monophosphate (cAMP) level. Chinese hamster ovary cells engineered to express a stably integrated human apelin receptor (APJ, AGTRL-1, APLNR), were plated into the wells of a microtiter plate. Cells were stimulated with forskolin to increase intracellular cAMP. Immediately following, compounds were added at a range of final concentrations 0.0-100 μM, in DMSO (not to exceed a final DMSO concentration of >1% v/v), and allowed to incubate with the cells for 0.5 h. At the end of the incubation, cells were lysed to stop APJ signaling, and cAMP was quantified using a commercially available assay kit that applies enzyme fragment complementation technology and bioluminescence, in a competitive ELISA format.
Compound efficacy (% resp) is reported as a percentage of the maximal apelin-13 response at 1 nM (control).

The mark [1] stands for this setting: CHO cells expressing human APJ, forskolin-stimulated, 0.5 h incubation, 50% of control (apelin-13, 1 nM) response, read-out: APJ cAMP EC50.
[2] abbreviates: percentage of the maximal apelin-13 response at 1 nM (control).

Like-named read-outs stand apart in the source and are kept apart here. Some results are limits rather than exact numbers.

Regarding `Cc1ccc2nc(CSc3nnc(-c4cccs4)n3-c3ccc(Cl)cc3)cc(=O)n2c1` [Example 26, 2-[4-(4-Chloro-phenyl)-5-thiophen-2-yl-4H-[1,2,4]triazol-3-ylsulfanylmethyl]-7-methyl-pyrido[1,2-a]pyrimidin-4-one], the 50% effective concentration (EC50) under setting [1] is more than 10000 nM. The Emax under setting [2] turned out to be 86%.

Regarding `Cc1ccc2nc(CSc3nnc(-c4cccs4)n3-c3ccccc3OC(F)(F)F)cc(=O)n2c1` [Example 27, 7-Methyl-2-[5-thiophen-2-yl-4-(2-trifluoromethoxy-phenyl)-4H-[1,2,4]triazol-3-ylsulfanylmethyl]-pyrido[1,2-a]pyrimidin-4-one], the 50% effective concentration (EC50) under setting [1] amounted to 17.4 nM. Also, under setting [2], the Emax was 82%.

On to `Cc1ccc2nc(CSc3nnc(-c4cccs4)n3-c3cccc(Cl)c3)cc(=O)n2c1` [Example 28, 2-[4-(3-Chloro-phenyl)-5-thiophen-2-yl-4H-[1,2,4]triazol-3-ylsulfanylmethyl]-7-methyl-pyrido[1,2-a]pyrimidin-4-one], for which, under setting [1], the EC50 was more than 10000 nM. Also, under setting [2], the Emax was 91%.

Take `Cc1ccc2nc(CSc3nnc(-c4cccs4)n3-c3ccccc3Cl)cc(=O)n2c1` [Example 29, 2-[4-(2-Chloro-phenyl)-5-thiophen-2-yl-4H-[1,2,4]triazol-3-ylsulfanylmethyl]-7-methyl-pyrido[1,2-a]pyrimidin-4-one]: the half-maximal effective concentration (EC50) under setting [1] was found to be 252 nM. In addition, the Emax under setting [2] stood at 62%.

Consider `COc1ccc(-n2c(SCc3cc(=O)n4cc(C)ccc4n3)nnc2-c2cccs2)cn1` [Example 30], for which, under setting [1], the 50% effective concentration (EC50) is more than 10000 nM. Under setting [2], the Emax is 31%.

`COc1ccccc1-n1c(SCc2csc(-c3ccccc3)n2)nnc1-c1cccs1` [Example 31, 4-(2-Methoxy-phenyl)-3-(2-phenyl-thiazol-4-ylmethylsulfanyl)-5-thiophen-2-yl-4H-[1,2,4]triazole]: the Emax came out at 133%. The concentration giving a half-maximal response (EC50) under setting [1] came out at 635 nM.

In the case of `COc1ccccc1-n1c(SCc2csc(-c3ccc(C(F)(F)F)cc3)n2)nnc1-c1cccs1` [Example 32, 4-(2-Methoxy-phenyl)-3-thiophen-2-yl-5-[2-(4-trifluoromethyl-phenyl)-thiazol-4-ylmethylsulfanyl]-4H-[1,2,4]triazole], the EC50 under setting [1] turned out to be 1460 nM. The Emax under setting [2] was 33%.

As to `COc1ccccc1-n1c(SCc2csc(-c3ccc(F)cc3)n2)nnc1-c1cccs1` [Example 33, 3-[2-(4-Fluoro-phenyl)-thiazol-4-ylmethylsulfanyl]-4-(2-methoxy-phenyl)-5-thiophen-2-yl-4H-[1,2,4]triazole], the concentration giving a half-maximal response (EC50) under setting [1] is 1170 nM. Moreover, the Emax under setting [2] is 80%.

In the case of `COc1ccccc1-n1c(SCc2csc(-c3ccc([N+](=O)[O-])cc3)n2)nnc1-c1cccs1` [Example 34, 4-(2-Methoxy-phenyl)-3-[2-(4-nitro-phenyl)-thiazol-4-ylmethylsulfanyl]-5-thiophen-2-yl-4H-[1,2,4]triazole], under setting [1], the EC50 is more than 10000 nM. The Emax under setting [2] was 120%.

Take `COc1ccccc1-n1c(SCc2csc(-c3ccc(Cl)cc3)n2)nnc1-c1cccs1` [Example 35, 3-[2-(4-Chloro-phenyl)-thiazol-4-ylmethylsulfanyl]-4-(2-methoxy-phenyl)-5-thiophen-2-yl-4H-[1,2,4]triazole]: the EC50 under setting [1] is more than 10000 nM. Besides, the Emax under setting [2] is 90%.

On to `COc1ccccc1-n1c(SCc2csc(-c3ccc(C)cc3)n2)nnc1-c1cccs1` [Example 36, 4-(2-Methoxy-phenyl)-3-thiophen-2-yl-5-(2-p-tolyl-thiazol-4-ylmethylsulfanyl)-4H-[1,2,4]triazole], for which, under setting [1], the EC50 was more than 10000 nM. For the same compound, the Emax under setting [2] turned out to be 83%.

With `COc1ccc(-c2nc(CSc3nnc(-c4cccs4)n3-c3ccccc3OC)co2)cc1` [Example 37, 4-(2-Methoxy-phenyl)-3-[2-(4-methoxy-phenyl)-oxazol-4-ylmethylsulfanyl]-5-thiophen-2-yl-4H-[1,2,4]triazole], the EC50 under setting [1] worked out at 3090 nM. Further, the Emax under setting [2] came out at 138%.

Take `COc1ccccc1-n1c(SCc2coc(-c3ccc(C(F)(F)F)cc3)n2)nnc1-c1cccs1` [Example 38, 4-(2-Methoxy-phenyl)-3-thiophen-2-yl-5-[2-(4-trifluoromethyl-phenyl)-oxazol-4-ylmethylsulfanyl]-4H-[1,2,4]triazole]: under setting [1], the EC50 is more than 10000 nM. Further, the Emax under setting [2] is 18%.

On to `COc1ccccc1-n1c(SCc2coc(-c3ccc(F)cc3)n2)nnc1-c1cccs1` [Example 39, 3-[2-(4-Fluoro-phenyl)-oxazol-4-ylmethylsulfanyl]-4-(2-methoxy-phenyl)-5-thiophen-2-yl-4H-[1,2,4]triazole], for which, under setting [1], the EC50 came to 105 nM. For the same compound, the Emax under setting [2] was determined as 93%.

Regarding `COc1ccccc1-n1c(SCc2coc(-c3ccc(Cl)cc3)n2)nnc1-c1cccs1` [Example 40, 3-[2-(4-Chloro-phenyl)-oxazol-4-ylmethylsulfanyl]-4-(2-methoxy-phenyl)-5-thiophen-2-yl-4H-[1,2,4]triazole], the EC50 under setting [1] came to 3340 nM. Besides, the Emax under setting [2] amounted to 58%.

On to `COc1ccccc1-n1c(SCc2coc(-c3ccc(C)cc3)n2)nnc1-c1cccs1` [Example 41, 4-(2-Methoxy-phenyl)-3-thiophen-2-yl-5-(2-p-tolyl-oxazol-4-ylmethylsulfanyl)-4H-[1,2,4]triazole], for which the 50% effective concentration (EC50) under setting [1] was determined as 2490 nM. The Emax under setting [2] is 58%.

In the case of `COc1ccccc1-n1c(SCc2coc(-c3ccc(Br)cc3)n2)nnc1-c1cccs1` [Example 42, 3-[2-(4-Bromo-phenyl)-oxazol-4-ylmethylsulfanyl]-4-(2-methoxy-phenyl)-5-thiophen-2-yl-4H-[1,2,4]triazole], the 50% effective concentration (EC50) under setting [1] is more than 10000 nM. Further, the Emax under setting [2] was 33%.

With `COc1ccccc1-n1c(SCc2coc(-c3ccc(OC(F)(F)F)cc3)n2)nnc1-c1cccs1` [Example 43, 4-(2-Methoxy-phenyl)-3-thiophen-2-yl-5-[2-(4-trifluoromethoxy-phenyl)-oxazol-4-ylmethylsulfanyl]-4H-[1,2,4]triazole], under setting [1], the concentration giving a half-maximal response (EC50) was found to be 3890 nM. For the same compound, the Emax under setting [2] turned out to be 102%.

For the compound `COc1ccccc1-n1c(SCc2cc(=O)n3c(C)cccc3n2)nnc1-c1cccs1` [Example 44, 2-[4-(2-Methoxy-phenyl)-5-thiophen-2-yl-4H-[1,2,4]triazol-3-ylsulfanylmethyl]-6-methyl-pyrido[1,2-a]pyrimidin-4-one], the EC50 turned out to be 9.8 nM and the Emax stood at 119%.

Turning to `COc1ccc2nc(CSc3nnc(-c4cccs4)n3-c3ccccc3OC)cc(=O)n2c1` [Example 45, 7-Methoxy-2-[4-(2-methoxy-phenyl)-5-thiophen-2-yl-4H-[1,2,4]triazol-3-ylsulfanylmethyl]-pyrido[1,2-a]pyrimidin-4-one], the concentration for a half-maximal effect (EC50) under setting [1] was found to be 70.5 nM. Further, the Emax under setting [2] was 130%.

As to `COc1ccccc1-n1c(SCc2cc(=O)n3cc(Br)ccc3n2)nnc1-c1cccs1` [Example 46, 7-Bromo-2-[4-(2-methoxy-phenyl)-5-thiophen-2-yl-4H-[1,2,4]triazol-3-ylsulfanylmethyl]-pyrido[1,2-a]pyrimidin-4-one], the EC50 under setting [1] was 7.8 nM. In addition, the Emax under setting [2] is 117%.

Regarding `COc1ccccc1-n1c(SCc2cc(=O)n3cc(C#N)ccc3n2)nnc1-c1cccs1` [Example 47, 2-[4-(2-Methoxy-phenyl)-5-thiophen-2-yl-4H-[1,2,4]triazol-3-ylsulfanylmethyl]-4-oxo-4H-pyrido[1,2-a]pyrimidine-7-carbonitrile], the concentration for a half-maximal effect (EC50) under setting [1] came out at 25.2 nM. Besides, the Emax under setting [2] is 54%.

As to `COc1ccccc1-n1c(SCc2cc(=O)n3cc(C)ccc3n2)nnc1-c1cccs1` [Example 48, 2-[4-(2-Methoxy-phenyl)-5-thiophen-2-yl-4H-[1,2,4]triazol-3-ylsulfanylmethyl]-7-methyl-pyrido[1,2-a]pyrimidin-4-one], the EC50 under setting [1] was 28 nM. Besides, the Emax under setting [2] turned out to be 103%.

As to `COc1ccccc1-n1c(SCc2cc(=O)n3cc(F)ccc3n2)nnc1-c1cccs1` [Example 49, 7-Fluoro-2-[4-(2-methoxy-phenyl)-5-thiophen-2-yl-4H-[1,2,4]triazol-3-ylsulfanylmethyl]-pyrido[1,2-a]pyrimidin-4-one], the 50% effective concentration (EC50) under setting [1] was determined as 23.4 nM. Under setting [2], the Emax amounted to 107%.

Regarding `COc1ccccc1-n1c(SCc2cc(=O)n3cc(Cl)ccc3n2)nnc1-c1cccs1` [Example 50, 7-Chloro-2-[4-(2-methoxy-phenyl)-5-thiophen-2-yl-4H-[1,2,4]triazol-3-ylsulfanylmethyl]-pyrido[1,2-a]pyrimidin-4-one], under setting [1], the 50% effective concentration (EC50) is 6.74 nM. Moreover, the Emax under setting [2] came out at 110%.

Regarding `COc1ccccc1-n1c(SCc2cc(=O)n3ccc(C)cc3n2)nnc1-c1cccs1` [Example 51, 2-[4-(2-Methoxy-phenyl)-5-thiophen-2-yl-4H-[1,2,4]triazol-3-ylsulfanylmethyl]-8-methyl-pyrido[1,2-a]pyrimidin-4-one], the concentration for a half-maximal effect (EC50) under setting [1] was determined as 451 nM. Also, the Emax under setting [2] stood at 125%.

By EC50 is commonly meant the concentration needed to bring the measured effect to its halfway point.
